Read-outs that look alike come from different tables or passages of the source.

Test [1] concerns the target T1, GSK3α (Homo sapiens, UniProt P49840).
Description: (§1) Reactions were terminated by the addition of 10 mM EDTA. Substrate and product were separated electrophoretically and fluorescence intensity of the substrate and product was determined by Labchip EZ Reader II (Caliper Life Sciences, MA). The kinase activity was measured as percent conversion. The reactions were performed in duplicate for each sample. […] The results were analyzed by Genedata Assay Analyzer. The percent inhibition was plotted against the compound concentration and the IC50 value was determined from the logistic dose-response curve fitting.
Test [2] has as its target T1, GSK3α. Put plainly: biochemical.
Description: as §1
For the next test, the target named is GSK3β (Homo sapiens, UniProt P49841). Put plainly: biochemical.
Setting [3] is: Caliper assay, GSK3α over GSK3β.

GSK3β, sequence (P49841 whole entry): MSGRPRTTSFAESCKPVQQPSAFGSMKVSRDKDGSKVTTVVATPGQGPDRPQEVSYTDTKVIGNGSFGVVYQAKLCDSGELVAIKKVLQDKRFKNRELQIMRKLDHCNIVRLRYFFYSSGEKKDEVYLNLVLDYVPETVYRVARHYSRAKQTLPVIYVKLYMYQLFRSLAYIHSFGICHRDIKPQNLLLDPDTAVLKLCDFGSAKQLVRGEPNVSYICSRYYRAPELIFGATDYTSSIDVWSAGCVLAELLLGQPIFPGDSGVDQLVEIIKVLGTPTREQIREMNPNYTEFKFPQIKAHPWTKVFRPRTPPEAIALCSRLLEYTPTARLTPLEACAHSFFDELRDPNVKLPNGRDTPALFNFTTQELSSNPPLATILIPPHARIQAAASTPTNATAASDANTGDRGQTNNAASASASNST
T1 sequence (P49840 whole entry): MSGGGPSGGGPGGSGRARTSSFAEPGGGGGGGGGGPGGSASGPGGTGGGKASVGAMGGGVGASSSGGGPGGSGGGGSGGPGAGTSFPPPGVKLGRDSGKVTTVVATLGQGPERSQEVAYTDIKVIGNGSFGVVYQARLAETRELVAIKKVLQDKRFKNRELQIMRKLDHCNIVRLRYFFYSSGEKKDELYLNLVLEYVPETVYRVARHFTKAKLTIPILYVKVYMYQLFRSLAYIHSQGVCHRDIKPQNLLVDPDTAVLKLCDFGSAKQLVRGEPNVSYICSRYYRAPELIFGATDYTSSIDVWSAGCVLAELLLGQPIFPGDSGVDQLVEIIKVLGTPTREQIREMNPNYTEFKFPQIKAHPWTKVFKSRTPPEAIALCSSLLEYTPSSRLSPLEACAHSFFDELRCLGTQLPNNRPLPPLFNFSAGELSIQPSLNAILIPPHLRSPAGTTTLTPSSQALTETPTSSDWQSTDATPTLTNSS

Consider `CC[C@@]1(c2cccc(C(F)(F)F)c2)C2=C(CC(C)(C)CC2=O)Nc2n[nH]cc21` (stereo in doubt) [Compound 223], for which the GSK3α fold selectivity on GSK3α [1] (setting [3]) is recorded as 7.5 fold. Moreover, the IC50 against GSK3α [2] was 2 nM; on GSK3β, 15 nM.
In the same order, the values of `CC[C@]1(c2cccc(F)c2)C2=C(CC(C)(C)CC2=O)Nc2n[nH]cc21` (stereo in doubt) [Compound 215] are above 3.5 fold, 9550 nM and above 33000 nM.
Consider `CC[C@]1(c2cccc(Cl)c2)C2=C(CC(C)(C)CC2=O)Nc2n[nH]cc21` (stereo in doubt) [Compound 220], for which the GSK3α fold selectivity at GSK3α [1] (setting [3]) came to 6.8 fold. Also, the concentration for half-maximal inhibition (IC50) at GSK3α [2] came out at 3610 nM; against GSK3β it was 24400 nM.
In the same order, the values of `CC[C@]1(c2ccccc2)C2=C(CC(C)(C)CC2=O)Nc2n[nH]c(F)c21` (stereo in doubt) [Compound 240] are above 2.7 fold, 12300 nM and above 33000 nM.
In the same order, the values of `CC[C@@]1(c2ccccc2)C2=C(CC(C)(C)CC2=O)Nc2n[nH]c(C3CC3)c21` (stereo in doubt) [Compound 245] are 1.1 fold, 28 nM and 31 nM.
`CC[C@@]1(c2cccc(F)c2)C2=C(CC(C)(C)CC2=O)Nc2n[nH]cc21` (stereo in doubt) [Compound 214] showed a GSK3α fold selectivity on GSK3α [1] (setting [3]) of 6.7 fold. The half-maximal inhibitory concentration (IC50) on GSK3α [2] stood at 58 nM; against GSK3β it was 388 nM.
In the same order, the values of `CCC[C@@]1(c2ccccc2)C2=C(CC(C)(C)CC2=O)Nc2n[nH]cc21` (stereo in doubt) [Compound 229] are 1.9 fold, 970 nM and 1890 nM.
In the same order, the values of `CC[C@@]1(c2ccccc2)C2=C(CC(C)(C)CC2=O)Nc2n[nH]c(F)c21` (stereo in doubt) [Compound 239] are 9.6 fold, 150 nM and 1440 nM.
In the same order, the values of `CC(C)[C@]1(c2ccccc2)C2=C(CC(C)(C)CC2=O)Nc2n[nH]cc21` (stereo in doubt) [Compound 233] are 1.6 fold, 4540 nM and 7290 nM.
On GSK3α [1] (setting [3]), `CC(C)C1(c2ccccc2)C2=C(CC(C)(C)CC2=O)Nc2n[nH]cc21` (racemic) [Compound 231] returned a GSK3α fold selectivity of 2.9 fold. The IC50 came to 644 nM on GSK3α [2] and 1890 nM at GSK3β.
In the same order, the values of `CCC1(c2ccccc2)C2=C(CC3(COC3)CC2=O)Nc2n[nH]cc21` (racemic) [Compound 236] are 6.4 fold, 1230 nM and 7860 nM.
On GSK3α [1] (setting [3]), `CC1(C)CC(=O)C2=C(C1)Nc1n[nH]cc1[C@]2(C)c1cccc(Cl)c1` (stereo in doubt) [Compound 204] displayed a GSK3α fold selectivity of 4.7 fold. For the same molecule, the half-maximal inhibitory concentration (IC50) is 37 nM at GSK3α [2] and 173 nM against GSK3β.
In turn, `CC1(C)CC(=O)C2=C(C1)Nc1n[nH]cc1[C@]2(C)c1cccc(C(F)(F)F)c1` (stereo in doubt) [Compound 207] registered a GSK3α fold selectivity at GSK3α [1] (setting [3]) of 7.0 fold. The IC50 on GSK3α [2] turned out to be 2 nM; against GSK3β, 14 nM.
In the same order, the values of `CCCC1(c2ccccc2)C2=C(CC(C)(C)CC2=O)Nc2n[nH]cc21` (racemic) [Compound 228] are 4.7 fold, 280 nM and 1310 nM.
In the same order, the values of `CC1(C)CC(=O)C2=C(C1)Nc1n[nH]cc1[C@]2(C)c1cccc(F)c1` (stereo in doubt) [Compound 202] are 2.7 fold, 465 nM and 1240 nM.
`CC[C@]1(c2cccc(C(F)(F)F)c2)C2=C(CC(C)(C)CC2=O)Nc2n[nH]cc21` (stereo in doubt) [Compound 224] gave a GSK3α fold selectivity on GSK3α [1] (setting [3]) of 5.3 fold. The IC50 against GSK3α [2] was determined as 3900 nM; against GSK3β, 20500 nM.
In the same order, the values of `CC1(C)CC(=O)C2=C(C1)Nc1n[nH]cc1[C@@]2(C)c1cccc(C#N)c1` (stereo in doubt) [Compound 210] are 3.8 fold, 2350 nM and 8860 nM.
In the same order, the values of `CC(C)[C@@]1(c2ccccc2)C2=C(CC(C)(C)CC2=O)Nc2n[nH]cc21` (stereo in doubt) [Compound 232] are 4.4 fold, 1010 nM and 4400 nM.
`CC[C@]1(c2ccccc2)C2=C(CC(C)(C)CC2=O)Nc2n[nH]c(C3CC3)c21` (stereo in doubt) [Compound 246] displayed a GSK3α fold selectivity at GSK3α [1] (setting [3]) of 1.2 fold. Besides, the concentration for half-maximal inhibition (IC50) amounted to 6370 nM at GSK3α [2] and 7500 nM on GSK3β.
In the same order, the values of `CC[C@@]1(c2cc(Cl)cc(Cl)c2)C2=C(CC(C)(C)CC2=O)Nc2n[nH]cc21` (stereo in doubt) [Compound 221] are 8.9 fold, 104 nM and 929 nM.
The molecule `CC[C@]1(c2cccc(C(C)(C)C)c2)C2=C(CC(C)(C)CC2=O)Nc2n[nH]cc21` (stereo in doubt) [Compound 227] returned a GSK3α fold selectivity on GSK3α [1] (setting [3]) of 2.3 fold. Besides, the IC50 against GSK3α [2] stood at 3630 nM; at GSK3β it was 8350 nM.
For the molecule `CC[C@@]1(c2ccccc2)C2=C(CC3(CCCCC3)CC2=O)Nc2n[nH]cc21` (stereo in doubt) [Compound 234], the GSK3α fold selectivity at GSK3α [1] (setting [3]) amounted to 6.4 fold. Also, the figures for the IC50 against GSK3α [2] and at GSK3β were 160 nM and 1030 nM, respectively.
In the same order, the values of `CCC1(CC)C2=C(CC(C)(C)CC2=O)Nc2n[nH]c(C)c21` [Compound 100] are 7.7 fold, 380 nM and 2910 nM.
As for `CC[C@@]1(c2cc(F)cc(F)c2)C2=C(CC(C)(C)CC2=O)Nc2n[nH]cc21` (stereo in doubt) [Compound 216], the GSK3α fold selectivity on GSK3α [1] (setting [3]) was determined as 9.0 fold. Further, the IC50 against GSK3α [2] was determined as 450 nM; on GSK3β, 4040 nM.
In the same order, the values of `CC1(C)CC(=O)C2=C(C1)Nc1n[nH]cc1[C@@]2(C)c1cccc(C(F)(F)F)c1` (stereo in doubt) [Compound 208] are 6.4 fold, 225 nM and 1450 nM.
In the same order, the values of `CC1(C)CC(=O)C2=C(C1)Nc1n[nH]cc1[C@@]2(C)c1cccc(F)c1` (stereo in doubt) [Compound 203] are 3.0 fold, 9600 nM and 28900 nM.
In the case of `CC1(C)CC(=O)C2=C(C1)Nc1n[nH]c(C3CC(F)(F)C3)c1[C@]21CCc2c(F)cccc21` [Compound 263], on GSK3α [1], the GSK3α fold selectivity came out at 1.4 fold. Also, the IC50 against GSK3α [2] was found to be 1490 nM; against GSK3β, 2060 nM.
For the molecule `CC1(C)CC(=O)C2=C(C1)Nc1n[nH]cc1[C@]2(C)c1cccc(C#N)c1` (stereo in doubt) [Compound 209], on GSK3α [1] (setting [3]), the GSK3α fold selectivity is listed as 5.0 fold. Besides, the IC50 at GSK3α [2] worked out at 6 nM; against GSK3β, 30 nM.
In the same order, the values of `CC[C@@]1(c2ccccc2)C2=C(CC3(COC3)CC2=O)Nc2n[nH]cc21` (stereo in doubt) [Compound 237] are 4.2 fold, 1150 nM and 4850 nM.

For the origin of these results see US20160375006A1, “USES OF PARALOG-SELECTIVE INHIBITORS OF GSK3 KINASES” (priority 2012, published 2016).
